Each structure is given as a SMILES string.

Series [1] in a line: in vitro. As to conditions: dog, MDCK.
Series [2] is described as follows: in vitro. As to conditions: dog, MDCK. The source holds these as a separate data set.
Series [3] is described as follows: in vitro. As to conditions: dog, MDCK. This is another data set of the same source.
Series [4] can be described thus: in vitro. As to conditions: human, microsomes.
Description: Half life in human liver microsomes at 1 uM by LC-MS/MS analysis in presence of NADPH
A short description of series [5]: in vitro. As to conditions: human, plasma.
Description: Metabolic stability in human plasma assessed as parent compound remaining incubated for 24 hrs by LC-MS/MS analysis
Series [6] is described as follows: in vitro. As to conditions: mouse, plasma.
Description: Metabolic stability in mouse plasma assessed as parent compound remaining incubated for 6 hrs by LC-MS/MS analysis
Series [7] deals with NAD-dependent protein deacylase sirtuin-5, mitochondrial (Homo sapiens, UniProt Q9NXA8).
Chain of NAD-dependent protein deacylase sirtuin-5, mitochondrial (Q9NXA8 whole entry): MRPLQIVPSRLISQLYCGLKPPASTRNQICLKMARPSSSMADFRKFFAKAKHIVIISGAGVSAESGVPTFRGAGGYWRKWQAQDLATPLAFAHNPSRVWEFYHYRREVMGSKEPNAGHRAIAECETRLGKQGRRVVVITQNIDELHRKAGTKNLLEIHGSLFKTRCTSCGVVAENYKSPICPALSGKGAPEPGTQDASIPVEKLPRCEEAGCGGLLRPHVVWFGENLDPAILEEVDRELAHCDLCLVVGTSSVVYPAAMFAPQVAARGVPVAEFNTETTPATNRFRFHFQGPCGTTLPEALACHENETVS
The nature of series [8]: in vitro. As to conditions: mouse, plasma. The source holds these as a separate data set.
Description: Metabolic stability in mouse plasma assessed as parent compound remaining incubated for 24 hrs by LC-MS/MS analysis
The nature of series [9]: in vitro. As to conditions: human, plasma. This is another data set of the same source.
Description: Metabolic stability in human plasma assessed as parent compound remaining incubated for 6 hrs by LC-MS/MS analysis
Series [10] in a line: in vitro. As to conditions: mouse, microsomes.
Description: Half life in mouse liver microsomes at 1 uM by LC-MS/MS analysis in presence of NADPH
The target of series [11] is T1, NAD-dependent protein deacetylase sirtuin-3, mitochondrial (Homo sapiens, UniProt Q9NTG7).
T1 sequence (Q9NTG7 whole entry): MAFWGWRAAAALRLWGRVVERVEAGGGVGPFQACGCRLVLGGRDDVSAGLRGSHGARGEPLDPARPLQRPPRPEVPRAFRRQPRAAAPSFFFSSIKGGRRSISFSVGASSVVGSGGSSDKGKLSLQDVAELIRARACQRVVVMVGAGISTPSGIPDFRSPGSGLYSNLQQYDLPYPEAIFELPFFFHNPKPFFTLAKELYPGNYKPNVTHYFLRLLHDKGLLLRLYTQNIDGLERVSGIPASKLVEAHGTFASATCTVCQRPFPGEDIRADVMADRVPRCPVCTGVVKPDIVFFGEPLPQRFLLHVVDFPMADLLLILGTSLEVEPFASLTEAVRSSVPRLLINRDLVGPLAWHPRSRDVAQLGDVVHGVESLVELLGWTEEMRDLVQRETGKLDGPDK

By Papp A→B is commonly meant the apparent permeability from the apical to the basolateral side of a cell layer. What is called Papp B→A is how fast a substance crosses the layer from the basolateral side. Consider `NC(=O)c1cncc(Oc2cccc3c(NC(=O)c4ccccc4)cccc23)c1`, for which the Papp A→B at 3 h, 25 µM in the series “in vitro [1]” is 3.8 ×10⁻⁶ cm/s. In addition, the recovery at 3 h, 25 µM in “in vitro [2]” was more than 90%. The molecule also registered a Papp B→A at 3 h, 25 µM in “in vitro [3]” of 4.4 ×10⁻⁶ cm/s.
The term half-life denotes the time needed for the level to fall by half in the phase considered. Low values mean rapid decline, high ones slow decline. A word on the amount remaining: it is the share of the starting amount still present when the sample was taken. Read a low amount remaining as a greater loss. One may read the IC50 as the point on the concentration scale where inhibition reaches its midpoint. A higher IC50 goes with a need for much substance. On to `NC(=O)c1cncc(OCc2cccc(NC(=O)c3cccnc3)c2)c1`, for which the half-life at 1 µM is 5.5 h in “in vitro [4]” and 0.85 h in “in vitro [10]”. This molecule also yielded a Papp A→B at 3 h, 25 µM in “in vitro [1]” of 23 ×10⁻⁶ cm/s. The amount remaining at 24 h came to 97% in “in vitro [5]” and 25% in “in vitro [8]”. The molecule further displayed a recovery at 3 h, 25 µM in the series “in vitro [2]” of more than 90%. Besides, the amount remaining at 6 h in the series “in vitro [6]” is 78%; in “in vitro [9]”, 99%. Also, the IC50 in [7] was more than 200 µM. In addition, the Papp B→A at 3 h, 25 µM in “in vitro [3]” stood at 25 ×10⁻⁶ cm/s.
In the case of `NC(=O)c1cncc(OCc2cccc(NC(=O)C34CC5CC(CC(C5)C3)C4)c2)c1`, the IC50 in [11] was more than 200 µM.

For the origin of these results see ChEMBL document CHEMBL3804824, “5-((3-Amidobenzyl)oxy)nicotinamides as Sirtuin 2 Inhibitors” (J Med Chem, 2016).
